Measurements published in patent US7632783B2 (priority 2004, dated 2009).

How the values were obtained:
[1] = tested on: rice blast (Pyricularia oryzae); type: in vivo; settings: potted rice (variety Karakaze), spraying liquid 300 ppm after spore inoculation, observed 7 days after inoculation, levels 0 to 3
[2] = tested on: gray mold (Botrytis cinerea); assay: Tomato gray mold control test (preventive effects); type: in vivo; settings: potted tomato (giant Fukuju variety), spraying liquid 300 ppm before spore inoculation, investigated 2 days after inoculation, levels 0 to 3
Method: Bulk drug was dissolved in a mixed solution of dimethylsulfoxide and methanol (volume ratio: 7/3), and spraying liquids containing 300 ppm of compounds of the present invention were uniformly sprayed onto potted test plants (tomato: giant Fukuju variety) in the second to third leaf stage. […], a suspension of pathogen spores were inoculated by spraying onto the pots in an inoculation room at a room temperature of 20 to 23° C. to promote the onset of disease. The degree of disease onset was investigated 2 days after inoculation. The test was carried out in duplicate.
Furthermore, the degree of disease onset was evaluated to one of four levels from 0 to 3 according to the criteria below by macroscopically observing the degree of disease onset of the test plants.
1: Degree of disease onset less than 40% of the untreated area
2: Degree of disease onset 40% to less than 80% of the untreated area
3: Degree of disease onset 80% or more

Row | Structure (SMILES) | degree of disease onset [1] | melting point | degree of disease onset [2]
1 | CCC1(OC)c2c(F)cccc2C(c2cnc3ccccc3c2)=NC1(C)C (centres unmarked) [Example 185, 3-(4-ethyl-5-fluoro-4-methoxy-3,3-dimethyl-3,4-dihydroisoquinolin-1-yl)quinoline] | 0 | 145 to 147 °C | 
2 | CC1(C)Cc2c(cccc2-c2cnco2)C(c2cnc3ccccc3c2)=N1 |  | 175 to 179 °C | 
3 | CC1(C)NC(c2cnc3ccccc3c2)c2cccc(F)c2C1=O (centres unmarked) |  | 228 to 229 °C | 
4 | CC1c2c(F)cccc2C(c2cnc3ccccc3c2)NC1(C)C (centres unmarked) [Example 124, 3-(5-fluoro-3,3,4-trimethyl-1,2,3,4-tetrahydroisoquinoline-1-yl)quinoline] | 0 | 133 to 134 °C | 
5 | CC1(C)NC(c2cnc3ccccc3c2)c2cccc(F)c2C1(C)C (centres unmarked) [Example 125, 3-(5-fluoro-3,3,4,4-tetramethyl-1,2,3,4-tetrahydroisoquinoline-1-yl)quinoline] | 0 | 179 to 181 °C | 
6 | CC1(C)N=C(c2cnc3ccccc3c2)c2cc(Br)ccc2C1(F)F |  | 123 to 125 °C | 
7 | CC1(C)Cc2c(F)cccc2C(c2cnc3ccccc3c2)N1 (centres unmarked) [Example 110, 3-(5-fluoro-3,3-dimethyl-1,2,3,4-tetrahydroisoquinoline-1-yl)quinoline] | 0 | 142 to 144 °C | 0
8 | CC1(C)N=C(c2cnc3ccccc3c2)c2cccc(F)c2C1O (centres unmarked) |  | 225 to 226 °C | 
9 | CC1(C)Cc2c(F)cccc2C(C)(c2cnc3ccccc3c2)N1 (centres unmarked) |  | 148 to 150 °C | 
10 | CC1(C)N=C(c2cnc3ccccc3c2)c2ccccc2C1=O |  | 137 °C | 
11 | CC1(C)Cc2c(ccc(F)c2F)C(c2cnc3ccccc3c2)=N1 [Example 52, 3-(5,6-difluoro-3,3-dimethyl-3,4-dihydroisoquinolin-1-yl)quinoline] | 0 |  | 0
12 | CC1(C)Cc2c(F)cccc2C2(c3cnc4ccccc4c3)ON12 (centres unmarked) [Example 197, 5-fluoro-3,3-dimethyl-8b-quinolin-3-yl-4,8b-dihydro-3H-oxazileno[3,2-a]isoquinoline] | 0 |  | 0
13 | CCOC1(C)c2c(F)cccc2C(c2cnc3ccccc3c2)=NC1(C)C (centres unmarked) [Example 184, 3-(4-ethoxy-5-fluoro-3,3,4-trimethyl-3,4-dihydroisoquinolin-1-yl)quinoline] | 0 | 118 to 119 °C | 
14 | CC1(C)Cc2ccccc2C(c2cnc3ccccc3c2)N1 (centres unmarked) [Example 4, 3-(3,3-dimethyl-1,2,3,4-tetrahydroisoquinolin-1-yl)quinoline] | 0 | 117 to 122 °C | 
15 | CC1(C)N=C(c2cnc3c(F)cccc3c2)c2cccc(F)c2C1(C)C [Example 164, 3-(5-fluoro-3,3,4,4-tetramethyl-3,4-dihydroisoquinolin-1-yl)-8-fluoroquinoline] | 0 |  | 0
16 | CC1(C)Cc2c(C#N)cccc2C(c2cnc3ccccc3c2)=N1 [Example 51, 3-(5-cyano-3,3-dimethyl-3,4-dihydroisoquinolin-1-yl)quinoline] | 0 |  | 0
17 | CC1(Cc2ccccc2)Cc2ccccc2C(c2cnc3ccccc3c2)=N1 (centres unmarked) [Example 79, 3-(3-Benzyl-3-methyl-3,4-dihydroisoquinolin-1-yl)quinoline] | 0 |  | 0
18 | CC1(C)c2c(F)cccc2C2(c3cnc4ccccc4c3)ON2C1(C)C (centres unmarked) [Example 193, 5-fluoro-3,3,4,4-tetramethyl-8b-quinolin-3-yl-4,8b-dihydro-3H-oxazileno[3,2-a]isoquinoline] | 0 |  | 0
19 | CC1(C)[N+]([O-])=C(c2cnc3ccccc3c2)c2ccccc2C1(F)F [Example 218, 3-(4,4-difluoro-3,3-dimethyl-2-oxide-3,4-dihydroisoquinolin-1-yl)quinoline] | 0 |  | 0
20 | CC1(C)Cc2c(C(N)=O)cccc2C(c2cnc3ccccc3c2)=N1 |  | 236 to 240 °C | 
21 | CC1(C)c2c(F)cccc2C(c2cnc3ccccc3c2)=[N+]([O-])C1(C)C [Example 204, 3-(5-fluoro-3,3,4,4-tetramethyl-2-oxide-3,4-dihydroisoquinolin-1-yl)quinoline] | 0 |  | 0
22 | CC1(C)Cc2c(Cl)cccc2C(C)(c2cnc3ccccc3c2)N1 (centres unmarked) |  | 142 to 144 °C | 
23 | CC1(C)c2ccccc2C(c2cnc3ccccc3c2)=[N+]([O-])C12CCCCC2 [Example 217] | 0 |  | 0
24 | CC1(c2ccc(F)cc2)Cc2ccccc2C(c2cnc3ccccc3c2)=N1 (centres unmarked) [Example 72, 3-[3-(4-fluorophenyl)-3-methyl-3,4-dihydroisoquinolin-1-yl]quinoline] | 0 |  | 0
25 | CC1(C)Cc2c(Cl)cccc2C(c2cnc3ccccc3c2)N1 (centres unmarked) [Example 112, 3-(5-chloro-3,3-dimethyl-1,2,3,4-tetrahydroisoquinoline-1-yl)quinoline] | 0 | 129 to 131 °C | 0
26 | CCC1(C)Cc2c(F)cccc2C(c2cnc3ccccc3c2)=N1 (centres unmarked) [Example 56, 3-(3-ethyl-5-fluoro-3-methyl-3,4-dihydroisoquinolin-1-yl)quinoline] | 0 |  | 0
27 | CN1C(c2cnc3ccccc3c2)c2ccccc2CC1(C)C (centres unmarked) |  | 116 to 118 °C | 
